Legend:
[1] = target: T1, r-LvMFBP (XP_027209752.1; methyl farnesoate-binding protein, MFBP); assay: isothermal titration calorimetry; set-up: species or system Penaeus vannamei; conditions: 20 uM protein, 200 uM ligand, 20 mM Tris-HCl pH 7.5, 30 C
T1 construct: recombinant, E. coli BL21-T1R, HisTALON (His-tag) purified; precursor 215 aa with 16 aa signal peptide, mature 199 aa

[2] = target: T1, r-LvMFBP (XP_027209752.1; methyl farnesoate-binding protein, MFBP); assay: isothermal titration calorimetry (also surface plasmon resonance); set-up: species or system Penaeus vannamei; conditions: ITC: 20 uM protein, 200 uM ligand, 20 mM Tris-HCl pH 7.5, 30 C; SPR: immobilized protein, PBST pH 7.4

Row | Kd [2] [µM] | SMILES | Kd [1] [µM]
1 | – | CC(C)=CCC/C(C)=C/CC/C(C)=C/C(=O)O [FA, farnesoic acid] | 630
2 | 0.666 | COC(=O)/C=C(\C)CC/C=C(\C)CCC=C(C)C [MF, methyl farnesoate] | –
3 | – | COC(C)(C)CCCC(C)C/C=C/C(C)=C/C(=O)OC(C)C (stereo not drawn) [Met, methoprene] | 34.7

From article PMC12256323, “Crustacean methyl farnesoate–binding protein is an insect juvenile hormone–binding protein homolog that inhibits molting” (The Journal of Biological Chemistry, 2025)
